Experimental data taken from ChEMBL document CHEMBL5236642, “Discovery of structural diverse reversible BTK inhibitors utilized to develop a novel in vivo CD69 and CD86 PK/PD mouse model” (Bioorg Med Chem Lett, 2023).
Values after ≈ are worked out from the molar mass of the structure shown.

Key:
[1] = Clearance in rat at 2 mg/kg, iv; type: ADME, organism-based; settings: in vivo
[2] = Half-life in rat at 2 mg/kg, iv; type: ADME, organism-based; settings: in vivo
[3] = Tmax in rat at 2 mg/kg, po; type: ADME, organism-based; settings: in vivo
[4] = Oral bioavailability in rat at 2 mg/kg; type: ADME, organism-based; settings: in vivo
[5] = Apparent permeability from apical to basolateral side in human CaCo-2/TC-7 cells; type: ADME, cell-based, Caco2/TC7
[6] = Tmax in Sprague-Dawley rat at 5 mg/kg, po; type: ADME, organism-based; settings: in vivo
[7] = Oral bioavailability in Sprague-Dawley rat at 5 mg/kg; type: ADME, organism-based; settings: in vivo
[8] = Volume of distribution at steady state in Sprague-Dawley rat at 1 mg/kg, iv; type: ADME, organism-based; settings: in vivo, read-out: Vdss
[9] = Half-life in Sprague-Dawley rat at 1 mg/kg, iv; type: ADME, organism-based; settings: in vivo
[10] = Solubility of the compound; type: physicochemical

CL [1]	half-life [2]	Tmax [3]	bioavailability [4]	Papp A→B [5]	Tmax [6]	bioavailability [7]	Vd [8]	half-life [9]	solubility [10]	SMILES
8 mg/mL/kg	13.3 h	2 h	98%							O=C(CNc1cc(Cl)cc(Cl)c1)N1CCC[C@@H](Nc2ncnc3[nH]ccc23)C1
				190 ×10⁻⁶ cm/s	0.87 h	34%	1.1 L/kg	0.9 h		O=C(CNc1cc(Cl)cc(Cl)c1)N1CC[C@H]2CCN(c3ncnc4[nH]ccc34)[C@H]2C1
				150 ×10⁻⁶ cm/s	1.6 h	23%	1.3 L/kg	5.3 h		C[C@@H]1[C@H](Nc2ncnc3[nH]ccc23)CCCN1C(=O)CNc1cc(Cl)cc(Cl)c1
									39 µg/mL (≈ 93 µM)	O=C(CNc1cc(Cl)cc(Cl)c1)NC1CCCN(c2ncnc3[nH]ccc23)C1 (stereo not given)
